Assay results from ChEMBL document CHEMBL6109122 (J Med Chem, 2025).
Activity calls are given as the source filed them. No cut-off for these calls is given here.

Columns and labels:
Mus musculus [1] = experiment: Anti-inflammatory activity in imiquimod-induced female BALB/c mouse psoriasis model assessed as effect on body weight at 5 mg/kg, ip administered daily topically for 6 days; type: functional, organism-based; settings: time 6.0 day
Mus musculus [2] = experiment: Anti-inflammatory activity in imiquimod-induced female BALB/c mouse psoriasis model assessed as alleviation of psoriasis pathology at 15 mg/kg, ip administered daily topically for 6 days; type: functional, organism-based; settings: time 6.0 day
[3] = AUC (0 to t) in male ICR mouse at 5 mg/kg, ip measured up to 24 hrs by LC-MS/MS analysis; type: ADME, organism-based; settings: in vivo
Mus musculus [4] = experiment: Anti-inflammatory activity in imiquimod-induced female BALB/c mouse psoriasis model assessed as reduction in psoriasis area severity index at 5 mg/kg, ip administered daily topically for 6 days; type: functional, organism-based; settings: time 6.0 day
[5] = biological target: T1, Tyrosine-protein kinase JAK3 (Homo sapiens, UniProt P52333); experiment: Binding affinity to JAK3 (unknown origin) by ADP-glo kinase assay
T1 sequence (P52333 whole entry): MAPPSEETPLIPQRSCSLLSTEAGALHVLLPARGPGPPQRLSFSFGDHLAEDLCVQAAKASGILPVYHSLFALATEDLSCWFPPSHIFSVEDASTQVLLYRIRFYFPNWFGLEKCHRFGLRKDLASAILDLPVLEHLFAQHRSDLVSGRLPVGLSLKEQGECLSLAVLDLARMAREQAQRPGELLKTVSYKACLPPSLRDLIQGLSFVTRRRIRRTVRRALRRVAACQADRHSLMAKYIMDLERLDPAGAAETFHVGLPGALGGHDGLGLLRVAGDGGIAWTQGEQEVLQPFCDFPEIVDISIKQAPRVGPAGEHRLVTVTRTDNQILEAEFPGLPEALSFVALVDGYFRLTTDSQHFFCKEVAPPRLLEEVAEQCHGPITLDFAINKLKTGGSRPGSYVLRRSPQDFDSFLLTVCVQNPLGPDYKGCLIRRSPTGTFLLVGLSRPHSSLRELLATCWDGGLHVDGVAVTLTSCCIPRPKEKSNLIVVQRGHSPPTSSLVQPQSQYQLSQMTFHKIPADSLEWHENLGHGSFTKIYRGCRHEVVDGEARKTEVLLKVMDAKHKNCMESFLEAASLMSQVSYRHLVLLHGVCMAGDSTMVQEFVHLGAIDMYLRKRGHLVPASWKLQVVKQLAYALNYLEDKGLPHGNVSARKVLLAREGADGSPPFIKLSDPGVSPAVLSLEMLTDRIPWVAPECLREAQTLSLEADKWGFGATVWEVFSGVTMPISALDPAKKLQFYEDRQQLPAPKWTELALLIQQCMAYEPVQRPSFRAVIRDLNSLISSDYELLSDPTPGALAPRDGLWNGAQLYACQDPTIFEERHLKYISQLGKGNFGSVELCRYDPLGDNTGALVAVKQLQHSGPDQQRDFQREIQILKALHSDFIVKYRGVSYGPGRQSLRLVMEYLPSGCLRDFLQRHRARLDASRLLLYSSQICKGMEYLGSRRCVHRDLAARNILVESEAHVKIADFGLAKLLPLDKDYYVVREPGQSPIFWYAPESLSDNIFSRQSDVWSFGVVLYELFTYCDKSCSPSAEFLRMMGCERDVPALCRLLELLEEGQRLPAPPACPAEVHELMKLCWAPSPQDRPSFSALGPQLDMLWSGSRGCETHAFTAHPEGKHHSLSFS

[6] = biological target: T2, Protein cereblon/Non-receptor tyrosine-protein kinase TYK2 (Homo sapiens, UniProt P29597+Q96SW2); experiment: PROTAC activity at CRBN/TYK2 in human Jurkat cells assessed as induction of degradation of TYK2 at 10 nM measured after 4 hrs by Western blot analysis; type: cell-based
Mus musculus [7] = species: Mus musculus; experiment: Anti-inflammatory activity in imiquimod-induced female BALB/c mouse psoriasis model assessed as reduction in INF-alpha expression in serum by ELISA method; type: functional, organism-based
[8] = Apparent permeability of the compound in human Caco-2 cells at 10 uM measured up to 120 min by LC-MS/MS analysis; type: ADME, cell-based
Jurkat [9] = experiment: Effect on JAK1 protein level in human Jurkat cells at 30 nM measured after 4 hrs by DIA-Based Proteomic analysis; type: functional, cell-based
Jurkat [10] = experiment: Downregulation of JAK3 protein level in human Jurkat cells at 1 to 100 nM measured after 10 hrs by Western blot analysis; type: functional, cell-based; settings: dose 1-100 nM
[11] = Half life in male ICR mouse at 5 mg/kg, ip measured up to 24 hrs by LC-MS/MS analysis; type: ADME, organism-based; settings: in vivo
[12] = biological target: T2, Protein cereblon/Non-receptor tyrosine-protein kinase TYK2; experiment: PROTAC activity at CRBN/TYK2 in human Jurkat cells assessed as induction of degradation of TYK2 at 10 nM preincubated with thalidomide for 2 hrs followed by compound addition and measured after 10 hrs by Western blot analysis; type: cell-based
[13] = biological target: T2, Protein cereblon/Non-receptor tyrosine-protein kinase TYK2; experiment: PROTAC activity at CRBN/TYK2 in human Jurkat cells assessed as induction of degradation of TYK2 at 10 nM preincubated with MLN4924 for 2 hrs followed by compound addition and measured after 10 hrs by Western blot analysis; type: cell-based
[14] = Metabolic stability in mouse liver microsomes assessed as intrinsic clearance measured up to 120 mins by LC-MS/MS analysis; type: ADME, Microsome; settings: read-out: CLH
[15] = biological target: T2, Protein cereblon/Non-receptor tyrosine-protein kinase TYK2; experiment: PROTAC activity at CRBN/TYK2 in human Jurkat cells assessed as induction of degradation of TYK2 at 1 nM measured after 10 hrs by Western blot analysis relative to control; type: cell-based
[16] = biological target: Non-receptor tyrosine-protein kinase TYK2 (Homo sapiens, UniProt P29597); experiment: Binding affinity to TYK2 JH1 domain (unknown origin) by ADP-glo kinase assay
Mus musculus [17] = experiment: Anti-inflammatory activity in imiquimod-induced female BALB/c mouse psoriasis model assessed as reduction in hyperkeratosis at 5 mg/kg, ip administered daily topically for 6 days by H and E staining based analysis; type: functional, organism-based; settings: time 6.0 day
[18] = biological target: Tyrosine-protein kinase JAK2 (Homo sapiens, UniProt O60674); experiment: Binding affinity to JAK2 (unknown origin) by ADP-glo kinase assay
[19] = biological target: Tyrosine-protein kinase JAK1 (Homo sapiens, UniProt P23458); experiment: Binding affinity to JAK1 (unknown origin) by ADP-glo kinase assay
[20] = MRT (0 to infinity) in male ICR mouse at 5 mg/kg, ip measured up to 24 hrs by LC-MS/MS analysis; type: ADME, organism-based; settings: in vivo
[21] = biological target: T2, Protein cereblon/Non-receptor tyrosine-protein kinase TYK2; experiment: PROTAC activity at CRBN/TYK2 in human Jurkat cells assessed as induction of degradation of TYK2 at 10 nM preincubated with deucravacitinib for 2 hrs followed by compound addition and measured after 10 hrs by Western blot analysis; type: cell-based
[22] = biological target: T2, Protein cereblon/Non-receptor tyrosine-protein kinase TYK2; experiment: PROTAC activity at CRBN/TYK2 in human HaCaT cells assessed as induction of degradation of TYK2 measured after 10 hrs by Western blot analysis; type: cell-based; settings: dose 1-100 nM
[23] = Inhibition of TYK2 dependent STAT3 phosphorylation in IL-6 stimulated human PBMC cells preincubated for 60 mins followed by IL-6 stimulation and measured after 60 mins by FACS assay; type: cell-based
Jurkat [24] = experiment: Downregulation of Ikaros level in human Jurkat cells at 30 nM measured after 4 hrs by DIA-Based Proteomic analysis; type: functional, cell-based

T2 sequence (P29597 whole entry, looked up): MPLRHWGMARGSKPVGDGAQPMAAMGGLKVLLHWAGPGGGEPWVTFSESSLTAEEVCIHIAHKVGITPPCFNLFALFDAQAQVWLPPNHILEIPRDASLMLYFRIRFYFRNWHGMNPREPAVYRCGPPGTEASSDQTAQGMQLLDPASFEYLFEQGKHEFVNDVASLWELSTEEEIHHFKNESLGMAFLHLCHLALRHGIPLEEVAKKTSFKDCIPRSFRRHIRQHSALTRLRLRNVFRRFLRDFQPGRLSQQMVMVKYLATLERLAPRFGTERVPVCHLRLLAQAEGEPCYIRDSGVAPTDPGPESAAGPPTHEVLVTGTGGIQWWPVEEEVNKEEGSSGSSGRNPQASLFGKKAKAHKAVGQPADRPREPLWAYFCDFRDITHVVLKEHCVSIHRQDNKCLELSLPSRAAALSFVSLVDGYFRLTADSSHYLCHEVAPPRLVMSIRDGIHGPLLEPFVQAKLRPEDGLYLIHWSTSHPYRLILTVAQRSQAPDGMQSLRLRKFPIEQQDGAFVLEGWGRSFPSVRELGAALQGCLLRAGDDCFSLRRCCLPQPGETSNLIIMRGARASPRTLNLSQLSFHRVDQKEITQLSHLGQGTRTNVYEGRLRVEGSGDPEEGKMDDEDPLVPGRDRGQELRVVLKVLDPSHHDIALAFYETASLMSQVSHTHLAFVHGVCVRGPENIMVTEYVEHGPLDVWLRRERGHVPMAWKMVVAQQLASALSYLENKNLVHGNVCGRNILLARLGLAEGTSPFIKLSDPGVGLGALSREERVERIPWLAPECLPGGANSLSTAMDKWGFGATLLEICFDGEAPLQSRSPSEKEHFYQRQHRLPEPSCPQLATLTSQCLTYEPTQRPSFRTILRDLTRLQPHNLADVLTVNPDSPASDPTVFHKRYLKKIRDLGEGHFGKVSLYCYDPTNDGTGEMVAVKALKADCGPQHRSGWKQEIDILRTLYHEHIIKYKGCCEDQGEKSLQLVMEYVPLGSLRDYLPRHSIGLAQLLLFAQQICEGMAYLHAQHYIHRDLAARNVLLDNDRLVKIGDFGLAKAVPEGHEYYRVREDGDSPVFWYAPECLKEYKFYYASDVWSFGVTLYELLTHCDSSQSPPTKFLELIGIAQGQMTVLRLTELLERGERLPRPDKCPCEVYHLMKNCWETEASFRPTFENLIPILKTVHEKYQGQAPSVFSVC
T2 sequence (Q96SW2 whole entry, looked up): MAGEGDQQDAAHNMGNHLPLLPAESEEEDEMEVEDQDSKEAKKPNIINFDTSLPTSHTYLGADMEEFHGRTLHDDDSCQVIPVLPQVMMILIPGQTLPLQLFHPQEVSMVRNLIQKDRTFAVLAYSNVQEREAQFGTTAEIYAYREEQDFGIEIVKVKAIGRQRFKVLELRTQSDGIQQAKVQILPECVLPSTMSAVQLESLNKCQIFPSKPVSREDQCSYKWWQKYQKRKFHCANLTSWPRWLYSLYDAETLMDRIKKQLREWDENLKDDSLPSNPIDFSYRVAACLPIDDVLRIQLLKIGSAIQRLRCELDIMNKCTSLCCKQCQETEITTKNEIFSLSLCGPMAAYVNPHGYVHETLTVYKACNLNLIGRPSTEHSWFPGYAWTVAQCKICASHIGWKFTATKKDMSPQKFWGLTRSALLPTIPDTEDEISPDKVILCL
Non-receptor tyrosine-protein kinase TYK2, sequence (P29597 whole entry, the tested form may be a part): as the sequence (P29597 whole entry, looked up) above
Tyrosine-protein kinase JAK2, sequence (O60674 whole entry): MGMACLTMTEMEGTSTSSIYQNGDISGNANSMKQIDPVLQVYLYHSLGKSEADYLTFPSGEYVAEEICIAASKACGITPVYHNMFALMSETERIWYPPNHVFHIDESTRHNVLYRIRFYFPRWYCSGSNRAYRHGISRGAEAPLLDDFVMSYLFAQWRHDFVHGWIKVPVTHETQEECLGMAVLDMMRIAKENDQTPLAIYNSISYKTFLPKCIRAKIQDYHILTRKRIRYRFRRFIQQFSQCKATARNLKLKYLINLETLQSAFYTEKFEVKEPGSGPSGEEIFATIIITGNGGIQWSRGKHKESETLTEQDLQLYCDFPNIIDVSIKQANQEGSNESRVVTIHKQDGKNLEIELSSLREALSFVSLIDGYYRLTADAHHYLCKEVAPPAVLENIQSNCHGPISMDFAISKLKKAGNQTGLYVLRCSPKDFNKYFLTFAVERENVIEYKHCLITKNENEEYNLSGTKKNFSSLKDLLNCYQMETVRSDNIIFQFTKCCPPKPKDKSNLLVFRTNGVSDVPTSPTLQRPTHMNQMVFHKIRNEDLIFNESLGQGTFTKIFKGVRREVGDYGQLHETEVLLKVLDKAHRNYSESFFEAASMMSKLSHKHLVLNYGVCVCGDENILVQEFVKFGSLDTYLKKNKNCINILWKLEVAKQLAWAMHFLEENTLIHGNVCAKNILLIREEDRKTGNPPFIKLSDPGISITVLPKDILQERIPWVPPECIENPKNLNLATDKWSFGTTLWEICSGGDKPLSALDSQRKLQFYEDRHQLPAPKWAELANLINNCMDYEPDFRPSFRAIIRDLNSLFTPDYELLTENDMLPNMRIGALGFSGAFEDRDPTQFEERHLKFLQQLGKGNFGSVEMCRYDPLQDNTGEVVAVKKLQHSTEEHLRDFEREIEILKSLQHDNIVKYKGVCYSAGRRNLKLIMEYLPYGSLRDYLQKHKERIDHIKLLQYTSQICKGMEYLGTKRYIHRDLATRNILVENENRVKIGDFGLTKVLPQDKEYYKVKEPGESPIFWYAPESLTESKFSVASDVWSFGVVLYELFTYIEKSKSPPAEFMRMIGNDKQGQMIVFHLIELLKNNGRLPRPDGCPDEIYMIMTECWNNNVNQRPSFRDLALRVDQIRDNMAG
Tyrosine-protein kinase JAK1, sequence (P23458 whole entry): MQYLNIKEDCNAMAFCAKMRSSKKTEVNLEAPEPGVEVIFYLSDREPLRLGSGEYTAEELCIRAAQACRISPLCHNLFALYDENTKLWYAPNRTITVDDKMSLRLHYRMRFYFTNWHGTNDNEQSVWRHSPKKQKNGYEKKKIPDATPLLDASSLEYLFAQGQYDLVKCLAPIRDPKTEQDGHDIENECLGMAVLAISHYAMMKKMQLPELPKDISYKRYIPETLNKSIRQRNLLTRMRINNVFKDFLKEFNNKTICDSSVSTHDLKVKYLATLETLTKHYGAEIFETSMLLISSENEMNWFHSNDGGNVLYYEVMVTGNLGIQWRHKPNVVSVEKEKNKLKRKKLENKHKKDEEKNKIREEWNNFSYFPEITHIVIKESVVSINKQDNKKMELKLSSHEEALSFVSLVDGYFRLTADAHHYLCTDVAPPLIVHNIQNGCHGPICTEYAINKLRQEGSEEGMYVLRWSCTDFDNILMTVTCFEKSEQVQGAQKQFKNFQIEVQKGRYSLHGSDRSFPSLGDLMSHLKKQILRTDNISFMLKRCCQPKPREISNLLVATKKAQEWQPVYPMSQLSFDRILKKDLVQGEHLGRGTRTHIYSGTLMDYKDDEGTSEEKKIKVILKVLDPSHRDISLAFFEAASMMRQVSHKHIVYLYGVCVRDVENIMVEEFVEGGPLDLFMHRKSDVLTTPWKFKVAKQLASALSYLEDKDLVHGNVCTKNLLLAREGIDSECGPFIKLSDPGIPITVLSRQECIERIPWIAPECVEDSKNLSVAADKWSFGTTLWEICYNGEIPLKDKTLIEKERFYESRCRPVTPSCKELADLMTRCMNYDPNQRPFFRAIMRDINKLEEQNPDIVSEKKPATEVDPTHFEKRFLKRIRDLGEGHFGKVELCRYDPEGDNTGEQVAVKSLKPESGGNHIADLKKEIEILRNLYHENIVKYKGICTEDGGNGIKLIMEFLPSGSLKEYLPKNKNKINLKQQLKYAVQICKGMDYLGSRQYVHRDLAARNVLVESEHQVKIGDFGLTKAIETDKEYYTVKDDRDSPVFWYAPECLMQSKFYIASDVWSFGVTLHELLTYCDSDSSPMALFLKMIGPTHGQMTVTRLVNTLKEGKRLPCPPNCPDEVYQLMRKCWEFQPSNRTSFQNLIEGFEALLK

In the case of `CNC(=O)c1cnc(Nc2ccc(C(=O)NC3CCC(Nc4ccc5c(c4)C(=O)N(C4CCC(=O)NC4=O)C5=O)CC3)cn2)cc1Nc1cccc(-c2ncc(F)cn2)c1OC` (centres undefined), the Activity (Mus musculus [1]) is reported as “Active”, the Activity (Mus musculus [2]) is reported as “Active” and the AUC(0-t) at 24 h [3] is reported as 4770 ng·h/mL. For the same compound, the Activity (Mus musculus [4]) was “Active”, the IC50 [5] was > 10 µM and the Activity [6] was “Active”. The Activity (Mus musculus [7]) was “Active”, the Papp at 2 h, 10 µM [8] was < 0.1 ×10⁻⁶ cm/s and the Activity (Jurkat [9]) was “inactive”. For the same compound, the Activity (Jurkat [10]) was “Active”, the half-life [11] was 162 min and the Activity [12] was “inactive”. The Activity [13] was “inactive”, the CLint scaled [14] was 54 mL/min/kg and the Activity [15] was 63%. The IC50 [16] was > 10 µM, the Activity (Mus musculus [17]) was “Active” and the IC50 [18] was > 10 µM. For the same compound, the IC50 [19] was > 10 µM, the MRT inf [20] was 4.2 h and the Activity [21] was “inactive”. For the same compound, the Activity [22] was “Dose-dependent-effect”, the IC50 [23] was > 10 µM and the Activity (Jurkat [24]) was “inactive”.
